Measurements as given in patent publication US7087609B2, “3-(pyridinyl-piperazin-1-yl)-phenylethyl amides as potassium channel openers” (Bristol-Myers Squibb Company, priority 2002, dated 2006).

Target: voltage-gated K+ channel KCNQ2 (Homo sapiens, UniProt O43526)
Assay: thallium flux assay to detect openers of KCNQ potassium channels
Assay type: cell-based
Details: thallium influx assay; 10 point concentration series, 1:3 dilutions; concentration yielding 50% of maximal response (opening)
Source text: A thallium flux assay was used to detect and characterize openers of KCNQ potassium channels. The thallium assay is generally described in International application WO 02/31508 published Apr. 18, 2002. More specifically, the thallium influx assay to detect compounds that block or open the voltage-gated K^+ channel KCNQ2 is described in Example IV of the published WO 02/31508 application.
For data analysis, the amplitude of the average of the negative controls was subtracted from all wells. The amplitudes of the test compounds were then compared to the value of four standard deviations of the negative control wells. The lowest concentration of a test compound sufficient to generate a signal amplitude greater than or equal to four standard deviations from the amplitude of the negative controls was defined as the minimal active concentration.
For generating EC50 values, compounds were serially diluted in 1:3 volume increments to produce a 10 point concentration series. EC50 values were calculated by fitting the resulting amplitudes to a single-site logistic equation. EC50 was defined as the concentration of test compound required to yield 50% of the maximal response. Maximal response (Maximal opening) was the largest signal amplitude above the negative control generated by any concentration of a test compound.

voltage-gated K+ channel KCNQ2, sequence (O43526 whole entry): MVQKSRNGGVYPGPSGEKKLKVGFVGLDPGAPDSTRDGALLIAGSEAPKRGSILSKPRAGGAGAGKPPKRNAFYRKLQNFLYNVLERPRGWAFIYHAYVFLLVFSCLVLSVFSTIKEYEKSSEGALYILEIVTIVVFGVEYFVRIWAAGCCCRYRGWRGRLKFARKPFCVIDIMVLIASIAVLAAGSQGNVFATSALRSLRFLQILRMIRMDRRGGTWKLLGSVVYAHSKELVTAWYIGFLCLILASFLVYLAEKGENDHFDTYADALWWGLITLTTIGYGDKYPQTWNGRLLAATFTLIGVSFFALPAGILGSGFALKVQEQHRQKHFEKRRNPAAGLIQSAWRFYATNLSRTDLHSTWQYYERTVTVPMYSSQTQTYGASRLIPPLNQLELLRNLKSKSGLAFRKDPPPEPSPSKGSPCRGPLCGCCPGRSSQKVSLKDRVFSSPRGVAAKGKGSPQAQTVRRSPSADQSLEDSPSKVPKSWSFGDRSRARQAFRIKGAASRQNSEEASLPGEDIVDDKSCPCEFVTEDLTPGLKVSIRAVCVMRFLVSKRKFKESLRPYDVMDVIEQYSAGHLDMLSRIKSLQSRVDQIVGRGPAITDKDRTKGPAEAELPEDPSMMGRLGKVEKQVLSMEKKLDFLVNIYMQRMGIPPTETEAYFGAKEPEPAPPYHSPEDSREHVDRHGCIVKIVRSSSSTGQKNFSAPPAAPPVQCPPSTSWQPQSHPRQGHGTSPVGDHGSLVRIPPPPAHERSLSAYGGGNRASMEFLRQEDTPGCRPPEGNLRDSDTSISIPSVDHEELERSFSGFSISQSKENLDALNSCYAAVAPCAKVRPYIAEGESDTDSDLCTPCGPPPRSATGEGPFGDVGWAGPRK

An EC50 of 1 nM was found for `C[C@H](NC(=O)/C=C/c1cccc(F)c1F)c1cccc(N2CCN(c3ccccn3)CC2)c1` [Example 10, (S)-3-(2,3-Difluoro-phenyl)-N-{1-[3-(4-pyridin-2-yl-piperazin-1-yl)-phenyl]-ethyl}-acrylamide] in this work.
An EC50 of 1 nM was found for `C[C@H](NC(=O)/C=C/c1ccc(F)cc1F)c1cccc(N2CCN(c3ccccn3)CC2)c1` [Example 11, (S)-3-(2,4-Difluoro-phenyl)-N-{1-[3-(4-pyridin-2-yl-piperazin-1-yl)-phenyl]-ethyl}-acrylamide] in this work.
An EC50 of 4 nM was found for `C[C@H](NC(=O)/C=C/c1cc(F)ccc1F)c1cccc(N2CCN(c3ccccn3)CC2)c1` [Example 12, (S)-3-(2,5-Difluoro-phenyl)-N-{1-[3-(4-pyridin-2-yl-piperazin-1-yl)-phenyl]-ethyl}-acrylamide] in this work.
An EC50 of 280 nM was found for `C[C@H](NC(=O)/C=C/c1c(F)cccc1F)c1cccc(N2CCN(c3ccccn3)CC2)c1` [Example 13, (S)-3-(2,6-Difluoro-phenyl)-N-{1-[3-(4-pyridin-2-yl-piperazin-1-yl)-phenyl]-ethyl}-acrylamide] in this work.
An EC50 of 1 nM was found for `C[C@H](NC(=O)/C=C/c1ccc(Cl)cc1F)c1cccc(N2CCN(c3ccccn3)CC2)c1` [Example 17, (S)-3-(4-Chloro-2-fluoro-phenyl)-N-{1-[3-(4-pyridin-2-yl-piperazin-1-yl)-phenyl]-ethyl}-acrylamide] in this work.
An EC50 of 476 nM was found for `C[C@H](NC(=O)/C=C/c1ccccc1F)c1cccc(N2CCN(c3ccccn3)CC2)c1` [Example 3, (S)-3-(2-Fluoro-phenyl)-N-{1-[3-(4-pyridin-2-yl-piperazin-1-yl)-phenyl]-ethyl}-acrylamide] in this work.
